How the values were obtained:
SIRT1 enzyme [1] = target: T1, SIRT1 enzyme (Homo sapiens, UniProt Q96EB6); assay: SIRT1 Activity Assay/Drug Discovery kit, Fluorescent: sirtuin activity acceleration by black ginger extracts and fractions (Example 3); format: biochemical; conditions: subject sample solution 500 μg/mL, 10 μL/well; FIGS. 1 and 2
T1 construct: purchased BIOMOL International (via COSMO BIO CO., LTD.) AK-555 (kit); SE-239 (enzyme)
T1 sequence (Q96EB6 1-747): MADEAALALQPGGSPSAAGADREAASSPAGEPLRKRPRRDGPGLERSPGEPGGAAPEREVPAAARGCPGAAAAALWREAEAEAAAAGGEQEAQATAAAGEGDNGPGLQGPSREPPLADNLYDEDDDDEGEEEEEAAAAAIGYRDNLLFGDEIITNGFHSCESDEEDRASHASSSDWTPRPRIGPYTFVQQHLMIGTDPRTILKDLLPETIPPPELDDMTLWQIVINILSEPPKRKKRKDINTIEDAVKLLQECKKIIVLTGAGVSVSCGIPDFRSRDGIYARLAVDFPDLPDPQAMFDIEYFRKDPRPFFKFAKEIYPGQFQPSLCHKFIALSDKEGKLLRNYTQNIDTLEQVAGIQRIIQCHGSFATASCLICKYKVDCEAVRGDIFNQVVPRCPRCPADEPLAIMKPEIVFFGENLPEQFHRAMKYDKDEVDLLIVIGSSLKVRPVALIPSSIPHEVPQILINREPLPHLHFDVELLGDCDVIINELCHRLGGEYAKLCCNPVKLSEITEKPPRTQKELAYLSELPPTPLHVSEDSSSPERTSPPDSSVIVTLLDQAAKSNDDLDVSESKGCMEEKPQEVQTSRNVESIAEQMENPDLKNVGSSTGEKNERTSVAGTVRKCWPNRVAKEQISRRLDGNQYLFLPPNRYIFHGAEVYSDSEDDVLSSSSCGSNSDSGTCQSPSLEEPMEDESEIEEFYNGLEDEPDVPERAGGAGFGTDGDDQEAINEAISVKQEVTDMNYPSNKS
Procedure: The sirtuin activity was measured according to the attached protocol using SIRT1 Activity Assay/Drug Discovery kit, Fluorescent (AK-555, BIOMOL International, Plymouth Meeting, Pa., USA [COSMO BIO CO., LTD., Tokyo]).
All measurement reagents (preserved at −80° C.) were stationed on ice until use to melt the SIRT1 enzyme (SE-239) and 5× Developer II (KI-176) moderately. SIRT1 enzyme was diluted to 0.2 U/μL with an assay buffer (KI-286). Resveratrol and extracts and fragments of the black ginger obtained above were used as subject samples. Solutions of 500 μg/mL were prepared using purified water for hot water extracts and the water phase fraction, and using DMSO for other samples. A solution of 10 μL/well was used for each obtained subject sample. To the control was added either DMSO or purified water instead of a subject sample. The substrate Fluor de Lys-SIRT1 (KI-177; 5 mM) plus a coenzyme NAD^+ (KI-282; 50 mM) were diluted with an assay buffer (KI-286) to obtain a concentration that is 3.33 folds that of the final usage concentration, and used in an amount of 15 μL/well. […] Then, a reaction stop solution Developer II/2 mM nicotinamide was added at 50 μL/well, and the fluorescent probe generated from Developer II was measured (excited wave length 380 nm, fluorescent wave length 460 nm) by a fluorescent plate reader (Tecan Co., Infinite 200) within 60 minutes after the reaction stopped.

SIRT1 enzyme [2] = target: T1, SIRT1 enzyme; assay: SIRT1 fluorescent activity assay: sirtuin activity acceleration by polyalkoxyflavonoid compounds (Example 6); format: biochemical; conditions: FIG. 8
Procedure: The sirtuin activity was measured according to a protocol similar to that of Example 3.
All measurement reagents (preserved at −80° C.) were stationed on ice until use to melt the SIRT1 enzyme (SE-239) and 5× Developer II (KI-176) moderately. SIRT1 enzyme was diluted to 0.2 U/μL with an assay buffer (KI-286). Resveratrol, Compounds 1 to 5 and nobiletin (Funakoshi Co.) were used as subject samples. […] To the control was added DMSO instead of a subject sample. The substrate Fluor de Lys-SIRT1 (KI-177; 5 mM) plus a coenzyme NAD^+ (KI-282; 50 mM) was diluted with an assay buffer (KI-286) to obtain a concentration that is 3.33 folds that of the final use concentration, and used in an amount of 15 μL/well. A subject sample solution (10 μL/well), SIRT1 enzyme solution (0.2 U/μL, 5 μL/well) and an assay buffer (10 μL/well) were added to the measurement microplate and pre-incubated at 37° C. for 5 minutes. The substrate solution that was heated preliminary at 37° C. was added at 25 μL/well, then, further incubated at 37° C. for 10 minutes. Then, a reaction stop solution Developer II/2 mM nicotinamide was added at 50 μL/well, and the fluorescent probe generated from Developer II was measured (excited wave length 360 nm, fluorescent wave length 460 nm) by a fluorescent plate reader (Tecan Co., Infinite 200) within 60 minutes after the reaction stopped.

sirtuin = conditions: reported in Non-Patent Documents 4 and 5; cited from earlier work

In the case of `Oc1ccc(C=Cc2cc(O)cc(O)c2)cc1` [resveratrol], the “sirtuin activity by comparison with the control value” (SIRT1 enzyme [1]) is reported as “enhanced”, the SIRT1 activity (SIRT1 enzyme [2]; concentrations of 100 μg/mL and 20 μg/mL) is reported as “accelerated” and the SIRT1 activity (SIRT1 enzyme [2]; low concentrations of 10 μg/mL and 2 μg/mL) is reported as “almost no activity was observed”. The sirtuin activation activity (sirtuin) was “effective in activating sirtuin”.

In the case of `O=c1c(O)c(-c2ccc(O)c(O)c2)oc2cc(O)ccc12` [fisetin, 3,7,3′,4′-tetrahydroxyflavone], the sirtuin activation activity (sirtuin) is listed as “weaker than resveratrol”.

In the case of `O=C(/C=C/c1ccc(O)c(O)c1)c1ccc(O)cc1O` [butein, 3,4,2′,4′-tetrahydroxychalcone], the sirtuin activation activity (sirtuin) is given as “weaker than resveratrol”.

For `O=C(/C=C/c1ccc(O)cc1)c1ccc(O)cc1O` [isoliquiritigenin, 4,2′,4′-trihydroxychalcone], the sirtuin activation activity (sirtuin) is listed as “weaker than resveratrol”.

For `O=c1c(O)c(-c2ccc(O)c(O)c2)oc2cc(O)cc(O)c12` [quercetin, 3,5,7,3′,4′-pentahydroxyflavone], the sirtuin activation activity (sirtuin) is listed as “weaker than resveratrol”.

Reference: US9745279B2, “Sirtuin activator” (TOKIWA PHYTOCHEMICAL CO., LTD., priority 2011, dated 2017)
